We go through nine compounds from patent US10017481B2, “Conformationally constrained, fully synthetic macrocyclic compounds” (POLYPHOR AG, priority 2012, dated 2018).

Holding throughout (format): in vitro ADME
Data set [1] is described as follows: Plasma stability assay, human plasma. The conditions noted are these: for Plasma Stability 240 min hum [% remain.]: human plasma, 10 μM, 37° C.; for half-life at 10 μM: human, plasma. Here is the method: (§1) 5. Plasma and Metabolic Stability Assays Example compounds were dissolved in DMSO/H2O 90:10 to a final concentration of 10 mM for plasma stability determination and metabolic stability determination. The assays were conducted according to literature precedents (F. P. Guengerich, Analysis and Characterization of Enzymes; in: Principles and Methods of Toxicology, A. W. Hayes (Ed.) Raven Press: New York, 1989, 777-813; R. Singh et al., In vitro metabolism of a potent HIV-protease inhibitor (141W94) using rat, monkey and human liver S9, Rapid Commun. Mass Spectrom. 1996, 10, 1019-1026). Plasma Stability Assay Human plasma (Blutspendedienst SRK, Basel) and CD-1 mouse plasma (mixed gender pool >50 animals, Innovative Research, Calif., USA) are both sodium citrate stabilized. The assay is performed in triplicates at 10 μM compound concentration and 37° C. Samples are taken at 0, 15, 30, 60, 120 and 240 minutes and stopped by precipitation with 3 volumes of acetonitrile/formic acid 98:2 and shaking (2 minutes, 600 rpm) followed by filtration (−20 mm Hg). The filtrate is collected. The filtrate (100 μL) is evaporated and reconstituted in the suitable solvent (cf. Table 33) to be analyzed by HPLC/MS/MS. The resulting peak area counts are expressed in percent of the 0 value and used to determine the endpoint stability in % and the half life T in minutes. In order to monitor assay integrity the degradation of propantheline is assayed with every experimental set.

Data set [2] is described as follows: Metabolic stability assay, CD-1 mouse microsomes. As to conditions: CD-1 mouse microsomes, 10 μM, 37° C.; for half-life at 10 μM: both sexes, 1 mg/ml protein, read-out: Metabolic Stability T ½ [min] mouse/(rat). Here is the method: (§2) 5. Plasma and Metabolic Stability Assays
(§3) Example compounds were dissolved in DMSO/H2O 90:10 to a final concentration of 10 mM for plasma stability determination and metabolic stability determination.
(§4) The assays were conducted according to literature precedents (F. P. Guengerich, Analysis and Characterization of Enzymes; in: Principles and Methods of Toxicology, A. W. Hayes (Ed.) Raven Press: New York, 1989, 777-813; R. Singh et al., In vitro metabolism of a potent HIV-protease inhibitor (141W94) using rat, monkey and human liver S9, Rapid Commun. Mass Spectrom. 1996, 10, 1019-1026).
(§5) Metabolic Stability Assay
(§6) Microsomes from a human 50 donor mixed gender pool and 1:1 mixtures of microsomes from CD-1 mouse single-gender pools are purchased from Celsis (Belgium). The enzymatic reaction is performed in a buffer containing an NADPH regeneration system and microsomes with the following end concentrations: 100 mM potassium phosphate buffer (all from Sigma), 1 mg/mL glucose-6-phosphate, 1 mg/mL β-nicotinamide adenine dinucleotide phosphate (NADP), 0.65 mg/mL magnesium chloride, 0.8 units/mL of glucose-6-phosphate dehydrogenase (prediluted with 5 mM citrate buffer), 10 μM compound and 1 mg/ml microsomal protein. Compounds are incubated at 37° C. in duplicates and samples are taken after 0, 5, 10, 20 and 60 minutes. After acetonitrile precipitation (3 volumes), shaking (2 minutes, 600 rpm) followed by centrifugation (10 minutes, 3200 g), the supernatant is dried reconstituted in the suitable solvent (cf. Table 33) and analyzed by HPLC/MS/MS. Metabolic turnover is expressed in % of the initial 0 minutes value and half life T½ (min) is calculated. Verapamil for human and propranolol for mouse are used as reference and are assayed with every experimental set.

Data set [3] in a line: Plasma stability assay, CD-1 mouse plasma. As to conditions: for Plasma Stability 240 min mouse/(rat) [% remain.]: CD-1 mouse plasma, 10 μM, 37° C.; for half-life at 10 μM: both sexes, CD-1, mouse, plasma. Here is the method:
as §1

Data set [4] is described as follows: Metabolic stability assay, human liver microsomes. The conditions noted are these: human microsomes, 10 μM, 37° C.; for half-life at 10 μM: both sexes, liver microsomes, 1 mg/ml protein, read-out: Metabolic Stability T ½ [min] hum. Here is the method:
as §2, §3, §4, §5, §6
A general note: Liver microsomes are vesicles of endoplasmic reticulum, rich in cytochrome P450 enzymes.

For `COc1ccc2c(c1)-c1cccc(c1)C(=O)N(C)[C@H](C(N)=O)CCC(=O)N[C@H](C)CO2` [Ex. 43, (10R,15S)-4-methoxy-10,16-dimethyl-12,17-dioxo-8-oxa-11,16-diazatricyclo[16.3.1.0^2,7]docosa-1(22),2,4,6,18,20-hexaene-15-carboxamide], in data set [1], the “Plasma Stability 240 min hum [% remain.]” value is on record as 97 % remain and the half-life at 10 μM was more than 4 h. For the same compound, in data set [2], the “Metabolic Stability 60 min mouse/(rat) [% remain.]” value is 83 % remain and the half-life at 10 μM is more than 60 min. In addition, in data set [3], the “Plasma Stability 240 min mouse/(rat) [% remain.]” value is listed as 63 % remain and the half-life at 10 μM was more than 4 h. Besides, in data set [4], the half-life at 10 μM was more than 60 min and the “Metabolic Stability 60 min hum [% remain.]” value amounted to 100 % remain.

`COc1ccc2c(c1)-c1cccc(c1)C(=O)N(C)[C@H](C(=O)NCC(C)C)CCC(=O)N[C@H](C)CO2` [Ex. 54, (10R,15S)-N-isobutyl-4-methoxy-10,16-dimethyl-12,17-dioxo-8-oxa-11,16-diazatricyclo[16.3.1.0^2,7]docosa-1(22),2,4,6,18,20-hexaene-15-carboxamide]: in data set [1], the “Plasma Stability 240 min hum [% remain.]” value stood at 100 % remain and the half-life at 10 μM is more than 4 h. In data set [2], the “Metabolic Stability 60 min mouse/(rat) [% remain.]” value was determined as 82 % remain and the half-life at 10 μM was more than 60 min. In addition, in data set [3], the “Plasma Stability 240 min mouse/(rat) [% remain.]” value is on record as 100 % remain and the half-life at 10 μM was more than 4 h. Besides, in data set [4], the half-life at 10 μM was more than 60 min and the “Metabolic Stability 60 min hum [% remain.]” value came out at 60 % remain.

For the compound `C[C@H]1COc2cccc(c2)-c2cccc(c2)C(=O)N(C)[C@H](C(=O)NCc2cccnc2)CCC(=O)N1` [Ex. 75, (9S,14S)-9,15-dimethyl-11,16-dioxo-N-(3-pyridinylmethyl)-7-oxa-10,15-diazatricyclo[15.3.1.1^2,6]docosa-1(21),2(22),3,5,17,19-hexaene-14-carboxamide], in data set [1], the “Plasma Stability 240 min hum [% remain.]” value is listed as 93 % remain and the half-life at 10 μM was more than 4 h. In data set [2], the “Metabolic Stability 60 min mouse/(rat) [% remain.]” value is reported as 48 % remain and the half-life at 10 μM came to 53 min. In addition, in data set [3], the “Plasma Stability 240 min mouse/(rat) [% remain.]” value amounted to 55 % remain and the half-life at 10 μM is more than 4 h. Further, in data set [4], the half-life at 10 μM came to 21 min and the “Metabolic Stability 60 min hum [% remain.]” value is 12 % remain.

`C[C@H]1COc2cccc(c2)-c2cccc(c2)C(=O)N(C)[C@H](C(=O)NCC(F)(F)F)CCC(=O)N1` [Ex. 78, (9S,14S)-9,15-dimethyl-11,16-dioxo-N-(2,2,2-trifluoroethyl)-7-oxa-10,15-diazatricyclo[15.3.1.1^2,6]docosa-1(21),2(22),3,5,17,19-hexaene-14-carboxamide]: in data set [1], the “Plasma Stability 240 min hum [% remain.]” value is on record as 100 % remain and the half-life at 10 μM was more than 4 h. Further, in data set [2], the “Metabolic Stability 60 min mouse/(rat) [% remain.]” value is on record as 92 % remain and the half-life at 10 μM was more than 60 min. Also, in data set [3], the “Plasma Stability 240 min mouse/(rat) [% remain.]” value is 86 % remain and the half-life at 10 μM is more than 4 h. In data set [4], the half-life at 10 μM was more than 60 min and the “Metabolic Stability 60 min hum [% remain.]” value amounted to 99 % remain.

For the compound `COCCNC(=O)[C@@H]1CCC(=O)N[C@H](C)COc2ccc(OC)cc2-c2cccc(c2)C(=O)N1C` [Ex. 51, (10R,15S)-4-methoxy-N-(2-methoxyethyl)-10,16-dimethyl-12,17-dioxo-8-oxa-11,16-diazatricyclo[16.3.1.0^2,7]docosa-1(22),2,4,6,18,20-hexaene-15-carboxamide], in data set [1], the “Plasma Stability 240 min hum [% remain.]” value was 100 % remain and the half-life at 10 μM is more than 4 h. Also, in data set [2], the “Metabolic Stability 60 min mouse/(rat) [% remain.]” value came to 69 % remain and the half-life at 10 μM was more than 60 min. Further, in data set [3], the “Plasma Stability 240 min mouse/(rat) [% remain.]” value is 80 % remain and the half-life at 10 μM was more than 4 h. For the same compound, in data set [4], the half-life at 10 μM was more than 60 min and the “Metabolic Stability 60 min hum [% remain.]” value was found to be 71 % remain.

With `C[C@H]1COc2cccc(c2)-c2cccc(c2)C(=O)N(C)[C@H](C(=O)Nc2ccccc2)CCC(=O)N1` [Ex. 72, (9S,14S)-9,15-dimethyl-11,16-dioxo-N-phenyl-7-oxa-10,15-diazatricyclo[15.3.1.1^2,6] docosa-1(21),2(22),3,5,17,19-hexaene-14-carboxamide], in data set [1], the “Plasma Stability 240 min hum [% remain.]” value stood at 100 % remain and the half-life at 10 μM was more than 4 h. Also, in data set [2], the “Metabolic Stability 60 min mouse/(rat) [% remain.]” value amounted to 30 % remain and the half-life at 10 μM was determined as 35 min. In data set [3], the “Plasma Stability 240 min mouse/(rat) [% remain.]” value was determined as 65 % remain and the half-life at 10 μM was more than 4 h. In data set [4], the half-life at 10 μM worked out at 22 min and the “Metabolic Stability 60 min hum [% remain.]” value is 14 % remain.

Regarding `C[C@H]1COc2cccc(c2)-c2cccc(c2)C(=O)N(C)[C@H](C(=O)NC2CC2)CCC(=O)N1` [Ex. 79, (9S,14S)-N-cyclopropyl-9,15-dimethyl-11,16-dioxo-7-oxa-10,15-diazatricyclo[15.3.1.1^2,6]docosa-1(21),2(22),3,5,17,19-hexaene-14-carboxamide], in data set [1], the “Plasma Stability 240 min hum [% remain.]” value is listed as 100 % remain and the half-life at 10 μM is more than 4 h. Besides, in data set [2], the “Metabolic Stability 60 min mouse/(rat) [% remain.]” value is reported as 73 % remain and the half-life at 10 μM was more than 60 min. Moreover, in data set [3], the “Plasma Stability 240 min mouse/(rat) [% remain.]” value is 60 % remain and the half-life at 10 μM is more than 4 h. In data set [4], the half-life at 10 μM is more than 60 min and the “Metabolic Stability 60 min hum [% remain.]” value turned out to be 95 % remain.

Take `CNC(=O)[C@@H]1CCC(=O)N[C@H](C)COc2ccc(OC)cc2-c2cccc(c2)C(=O)N1C` [Ex. 44, (10R,15S)-4-methoxy-N,10,16-trimethyl-12,17-dioxo-8-oxa-11,16-diazatricyclo[16.3.1.0^2,7]docosa-1(22),2,4,6,18,20-hexaene-15-carboxamide]: in data set [1], the “Plasma Stability 240 min hum [% remain.]” value is given as 100 % remain and the half-life at 10 μM was more than 4 h. Also, in data set [2], the “Metabolic Stability 60 min mouse/(rat) [% remain.]” value turned out to be 77 % remain and the half-life at 10 μM was more than 60 min. In data set [3], the “Plasma Stability 240 min mouse/(rat) [% remain.]” value came to 83 % remain and the half-life at 10 μM was more than 4 h. Further, in data set [4], the half-life at 10 μM was more than 60 min and the “Metabolic Stability 60 min hum [% remain.]” value is listed as 68 % remain.

In the case of `C[C@H]1COc2cccc(c2)-c2cccc(c2)C(=O)N(C)[C@H](C(=O)NCc2cccc3ccccc23)CCC(=O)N1` [Ex. 74, (9S,14S)-9,15-dimethyl-N-(1-naphthylmethyl)-11,16-dioxo-7-oxa-10,15-diazatricyclo[15.3.1.1^2,6]docosa-1(21),2(22),3,5,17,19-hexaene-14-carboxamide], in data set [1], the “Plasma Stability 240 min hum [% remain.]” value was found to be 100 % remain and the half-life at 10 μM is more than 4 h. In addition, in data set [2], the “Metabolic Stability 60 min mouse/(rat) [% remain.]” value was 0 % remain and the half-life at 10 μM is 3 min. Moreover, in data set [3], the “Plasma Stability 240 min mouse/(rat) [% remain.]” value came to 67 % remain and the half-life at 10 μM is more than 4 h. Moreover, in data set [4], the half-life at 10 μM amounted to 7 min and the “Metabolic Stability 60 min hum [% remain.]” value is listed as 1 % remain.
